The results in this text go back to the supplement of paper PMC10307832.

Common to all, as to assay: relative viability (nuclei count vs DMSO), 5 days (fraction); higher = more cells survive
Compound in the assay “Nelarabine + Alpelisib”: COc1nc(N)nc2c1ncn2[C@@H]1O[C@H](CO)[C@@H](O)[C@@H]1O [Nelarabine] + Cc1nc(NC(=O)N2CCC[C@H]2C(N)=O)sc1-c1ccnc(C(C)(C)C(F)(F)F)c1 [Alpelisib] (partner 2 µM)
In outline: (§1)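 Relative viability was taken as the ratio of nuclei in treated wells to nuclei in vehicle wells. Lung cancer cell lines in 1536-well plates received compounds by pin tool one day after seeding, either one drug alone or a fixed anchor-drug dose plus five library-drug doses (not always all listed) in √10 steps. Nuclei were counted on 4× images after 5 days of treatment, and values are medians of duplicate plates.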

Compound in the assay “Adavosertib + AZD7762”: C=CCn1c(=O)c2cnc(Nc3ccc(N4CCN(C)CC4)cc3)nc2n1-c1cccc(C(C)(C)O)n1 [Adavosertib] + NC(=O)Nc1cc(-c2cccc(F)c2)sc1C(=O)N[C@H]1CCCNC1 [AZD7762] (partner 0.2 µM)
In outline: as §1

Compound in the assay “Adavosertib + OSI-027”: C=CCn1c(=O)c2cnc(Nc3ccc(N4CCN(C)CC4)cc3)nc2n1-c1cccc(C(C)(C)O)n1 [Adavosertib] + COc1cccc2cc(-c3nc([C@H]4CC[C@H](C(=O)O)CC4)n4ncnc(N)c34)[nH]c12 [OSI-027] (partner 0.5 µM)
In short, it runs like this: as §1

Compound in the assay “Adavosertib + Tozasertib”: C=CCn1c(=O)c2cnc(Nc3ccc(N4CCN(C)CC4)cc3)nc2n1-c1cccc(C(C)(C)O)n1 [Adavosertib] + Cc1cc(Nc2cc(N3CCN(C)CC3)nc(Sc3ccc(NC(=O)C4CC4)cc3)n2)n[nH]1 [Tozasertib] (partner 0.1 µM)
In short, it runs like this:
as §1

Regarding NCI-H1355, the relative viability in the assay with Nelarabine + Alpelisib (first compound 0.01 µM) stood at 1.09; with Nelarabine + Alpelisib (first compound 0.03162 µM) it was 0.615; with Nelarabine + Alpelisib (first compound 0.1 µM), 0.813; in the assay with Nelarabine + Alpelisib (first compound 0.3162 µM), 0.894; with Nelarabine + Alpelisib (first compound 1 µM), 0.801; with Adavosertib + AZD7762 (first compound 0.01 µM), 0.734. Besides, the relative viability in the assay with Adavosertib + AZD7762 (first compound 0.03162 µM) worked out at 0.599; with Adavosertib + AZD7762 (first compound 0.1 µM), 0.406; with Adavosertib + AZD7762 (first compound 0.3162 µM), 0.307; in the assay with Adavosertib + OSI-027 (first compound 0.01 µM) it was 0.396; with Adavosertib + OSI-027 (first compound 0.03162 µM), 0.387; in the assay with Adavosertib + OSI-027 (first compound 0.1 µM), 0.364. In addition, the relative viability amounted to 0.355 with Adavosertib + OSI-027 (first compound 0.3162 µM); 0.549 with Adavosertib + Tozasertib (first compound 0.01 µM); 0.553 in the assay with Adavosertib + Tozasertib (first compound 0.03162 µM); 0.522 with Adavosertib + Tozasertib (first compound 0.1 µM); 0.615 in the assay with Adavosertib + Tozasertib (first compound 0.3162 µM).
NCI-H460: the relative viability was found to be 1.03 with Nelarabine + Alpelisib (first compound 0.01 µM); 0.411 with Nelarabine + Alpelisib (first compound 0.03162 µM); 0.565 in the assay with Nelarabine + Alpelisib (first compound 0.1 µM); 0.66 with Nelarabine + Alpelisib (first compound 0.3162 µM); 0.371 in the assay with Nelarabine + Alpelisib (first compound 1 µM); 0.376 with Adavosertib + AZD7762 (first compound 0.01 µM). Further, the relative viability was 0.507 with Adavosertib + AZD7762 (first compound 0.03162 µM); 0.169 in the assay with Adavosertib + AZD7762 (first compound 0.1 µM); 0.0591 with Adavosertib + AZD7762 (first compound 0.3162 µM); 0.758 in the assay with Adavosertib + OSI-027 (first compound 0.01 µM); 0.667 in the assay with Adavosertib + OSI-027 (first compound 0.03162 µM); 0.561 in the assay with Adavosertib + OSI-027 (first compound 0.1 µM). The relative viability with Adavosertib + OSI-027 (first compound 0.3162 µM) was 0.341; with Adavosertib + Tozasertib (first compound 0.01 µM), 0.533; with Adavosertib + Tozasertib (first compound 0.03162 µM), 0.495; with Adavosertib + Tozasertib (first compound 0.1 µM), 0.534; in the assay with Adavosertib + Tozasertib (first compound 0.3162 µM) it was 0.721.
Turning to NCI-H1651, the relative viability with Nelarabine + Alpelisib (first compound 0.01 µM) came out at 1.15; with Nelarabine + Alpelisib (first compound 0.03162 µM) it was 0.963; in the assay with Nelarabine + Alpelisib (first compound 0.1 µM), 1.12; in the assay with Nelarabine + Alpelisib (first compound 0.3162 µM) it was 1.02; with Nelarabine + Alpelisib (first compound 1 µM) it was 0.855; in the assay with Adavosertib + AZD7762 (first compound 0.01 µM), 0.415. Also, the relative viability with Adavosertib + AZD7762 (first compound 0.03162 µM) was 0.299; with Adavosertib + AZD7762 (first compound 0.1 µM) it was 0.264; in the assay with Adavosertib + AZD7762 (first compound 0.3162 µM) it was 0.132; in the assay with Adavosertib + OSI-027 (first compound 0.01 µM), 0.577; with Adavosertib + OSI-027 (first compound 0.03162 µM), 0.571; with Adavosertib + OSI-027 (first compound 0.1 µM), 0.781. For the same cell line, the relative viability with Adavosertib + OSI-027 (first compound 0.3162 µM) was determined as 0.539; in the assay with Adavosertib + Tozasertib (first compound 0.01 µM), 0.7; with Adavosertib + Tozasertib (first compound 0.03162 µM), 0.702; with Adavosertib + Tozasertib (first compound 0.1 µM), 0.832; with Adavosertib + Tozasertib (first compound 0.3162 µM), 0.668.
Take NCI-H1734: the relative viability was 0.746 in the assay with Nelarabine + Alpelisib (first compound 0.01 µM); 0.67 with Nelarabine + Alpelisib (first compound 0.03162 µM); 0.709 in the assay with Nelarabine + Alpelisib (first compound 0.1 µM); 0.653 with Nelarabine + Alpelisib (first compound 0.3162 µM); 0.704 with Nelarabine + Alpelisib (first compound 1 µM); 0.379 in the assay with Adavosertib + AZD7762 (first compound 0.01 µM). For the same cell line, the relative viability with Adavosertib + AZD7762 (first compound 0.03162 µM) came to 0.315; with Adavosertib + AZD7762 (first compound 0.1 µM), 0.202; with Adavosertib + AZD7762 (first compound 0.3162 µM), 0.168; in the assay with Adavosertib + OSI-027 (first compound 0.01 µM) it was 0.608; in the assay with Adavosertib + OSI-027 (first compound 0.03162 µM), 0.638; with Adavosertib + OSI-027 (first compound 0.1 µM), 0.604. Besides, the relative viability in the assay with Adavosertib + OSI-027 (first compound 0.3162 µM) worked out at 0.377; in the assay with Adavosertib + Tozasertib (first compound 0.01 µM), 0.257; with Adavosertib + Tozasertib (first compound 0.03162 µM) it was 0.24; in the assay with Adavosertib + Tozasertib (first compound 0.1 µM), 0.252; in the assay with Adavosertib + Tozasertib (first compound 0.3162 µM), 0.266.
H3255: the relative viability was found to be 0.859 in the assay with Nelarabine + Alpelisib (first compound 0.01 µM); 0.897 in the assay with Nelarabine + Alpelisib (first compound 0.03162 µM); 0.644 in the assay with Nelarabine + Alpelisib (first compound 0.1 µM); 0.687 with Nelarabine + Alpelisib (first compound 0.3162 µM); 0.75 with Nelarabine + Alpelisib (first compound 1 µM); 0.824 with Adavosertib + AZD7762 (first compound 0.01 µM). In addition, the relative viability worked out at 0.854 in the assay with Adavosertib + AZD7762 (first compound 0.03162 µM); 0.721 with Adavosertib + AZD7762 (first compound 0.1 µM); 0.559 in the assay with Adavosertib + AZD7762 (first compound 0.3162 µM); 0.506 with Adavosertib + OSI-027 (first compound 0.01 µM); 0.654 with Adavosertib + OSI-027 (first compound 0.03162 µM); 0.584 with Adavosertib + OSI-027 (first compound 0.1 µM). Besides, the relative viability worked out at 0.539 with Adavosertib + OSI-027 (first compound 0.3162 µM); 0.63 in the assay with Adavosertib + Tozasertib (first compound 0.01 µM); 0.721 with Adavosertib + Tozasertib (first compound 0.03162 µM); 0.421 with Adavosertib + Tozasertib (first compound 0.1 µM); 0.559 with Adavosertib + Tozasertib (first compound 0.3162 µM).
On to NCI-H596, for which the relative viability was 0.532 with Nelarabine + Alpelisib (first compound 0.01 µM); 0.504 with Nelarabine + Alpelisib (first compound 0.03162 µM); 0.525 with Nelarabine + Alpelisib (first compound 0.1 µM); 0.577 with Nelarabine + Alpelisib (first compound 0.3162 µM); 0.504 with Nelarabine + Alpelisib (first compound 1 µM); 1.04 in the assay with Adavosertib + AZD7762 (first compound 0.01 µM). Besides, the relative viability in the assay with Adavosertib + AZD7762 (first compound 0.03162 µM) stood at 1.05; with Adavosertib + AZD7762 (first compound 0.1 µM), 0.844; with Adavosertib + AZD7762 (first compound 0.3162 µM) it was 0.751; with Adavosertib + OSI-027 (first compound 0.01 µM), 0.784; with Adavosertib + OSI-027 (first compound 0.03162 µM), 0.914; with Adavosertib + OSI-027 (first compound 0.1 µM), 0.752. Further, the relative viability with Adavosertib + OSI-027 (first compound 0.3162 µM) is 0.732; in the assay with Adavosertib + Tozasertib (first compound 0.01 µM), 1.03; with Adavosertib + Tozasertib (first compound 0.03162 µM) it was 0.826; in the assay with Adavosertib + Tozasertib (first compound 0.1 µM), 1.02; with Adavosertib + Tozasertib (first compound 0.3162 µM), 0.93.
On to NCI-H1437, for which the relative viability with Nelarabine + Alpelisib (first compound 0.01 µM) turned out to be 1.17; with Nelarabine + Alpelisib (first compound 0.03162 µM), 0.918; in the assay with Nelarabine + Alpelisib (first compound 0.1 µM) it was 0.945; in the assay with Nelarabine + Alpelisib (first compound 0.3162 µM) it was 1.13; in the assay with Nelarabine + Alpelisib (first compound 1 µM) it was 1.03; in the assay with Adavosertib + AZD7762 (first compound 0.01 µM) it was 1.11. The relative viability in the assay with Adavosertib + AZD7762 (first compound 0.03162 µM) is 1.11; in the assay with Adavosertib + AZD7762 (first compound 0.1 µM) it was 1.15; with Adavosertib + AZD7762 (first compound 0.3162 µM) it was 0.581; with Adavosertib + OSI-027 (first compound 0.01 µM), 0.931; with Adavosertib + OSI-027 (first compound 0.03162 µM), 0.868; with Adavosertib + OSI-027 (first compound 0.1 µM) it was 0.973. The relative viability was found to be 0.788 with Adavosertib + OSI-027 (first compound 0.3162 µM); 0.415 in the assay with Adavosertib + Tozasertib (first compound 0.01 µM); 0.389 with Adavosertib + Tozasertib (first compound 0.03162 µM); 0.433 with Adavosertib + Tozasertib (first compound 0.1 µM); 0.421 with Adavosertib + Tozasertib (first compound 0.3162 µM).
Consider CAL-12T, for which the relative viability is 1.86 with Nelarabine + Alpelisib (first compound 0.01 µM); 1.48 with Nelarabine + Alpelisib (first compound 0.03162 µM); 1.16 with Nelarabine + Alpelisib (first compound 0.1 µM); 1.4 in the assay with Nelarabine + Alpelisib (first compound 0.3162 µM); 1.37 in the assay with Nelarabine + Alpelisib (first compound 1 µM); 0.569 with Adavosertib + AZD7762 (first compound 0.01 µM). Besides, the relative viability with Adavosertib + AZD7762 (first compound 0.03162 µM) turned out to be 0.41; with Adavosertib + AZD7762 (first compound 0.1 µM), 0.427; with Adavosertib + AZD7762 (first compound 0.3162 µM), 0.232; with Adavosertib + OSI-027 (first compound 0.01 µM), 0.568; in the assay with Adavosertib + OSI-027 (first compound 0.03162 µM) it was 0.711; in the assay with Adavosertib + OSI-027 (first compound 0.1 µM), 0.582. In addition, the relative viability with Adavosertib + OSI-027 (first compound 0.3162 µM) is 0.235; with Adavosertib + Tozasertib (first compound 0.01 µM), 0.394; with Adavosertib + Tozasertib (first compound 0.03162 µM) it was 0.351; with Adavosertib + Tozasertib (first compound 0.1 µM), 0.321; in the assay with Adavosertib + Tozasertib (first compound 0.3162 µM), 0.18.
